Laboratory results: patent US20240156974A1, “COMPOSITIONS AND METHODS FOR MODULATION OF ANTIBODY ACTIVITY” (Institute For Cancer Research D/B/A Tha Research Institute …, priority 2021, published 2024)

System: CTLA-4/CD80 interaction
Assay: In vitro CTLA-4/CD80 HTRF binding assay with triple-mutant anti-CTLA-4 scFv (Rip3)
Conditions: no cathepsin B; up to 75 μM JK43 and prodrug; FIG. 2
Protocol: In addition to the above, an in vitro CTLA-4/CD80 HTRF (homogeneous time resolved fluorescence) binding assay was performed with cathepsin B activatable prodrug. Specifically, the HTRF assay was used to assess the ability of antibodies to block the CTLA-4/CD80 interaction using a CTLA-4/CD80 binding assay kit (cat. no. 64CTLA80PEG; Cisbio (Codolet, France)). […]
To the above, 4 μL of Tag1-CD80 protein and 4 μL of Tag2-CTLA-4 were added into a black 384-well low volume plate and then incubated at 37° C. for 10 minutes. […] These were used to measure the fluorescence energy transfer between donor Anti-Tag1 Eu Cryptate and acceptor Anti-Tag d2 reagent. Data was collected at different time points (1, 3, 8, 12 and 24 hours) and the FRET signals were measured on a envision multimode plate reader (PerkinElmer, Shelton, CT) using 340 nm as the excitation wavelength, a 620 nm filter for the Eu donor fluorescence detection, and a 665 nm filter for the acceptor fluorescence detection. HTRF signals were calculated as a ratio as follows: (intensity of 665 nm)/(intensity of 620 nm)×10,000, which was plotted against the WT/triple mutant antibody (5GSWT and 5GS 3′M (Rip3)) concentration to derive the EC50.

For c1ccc(COc2ccc3cn[nH]c3c2)cc1 [Stitch3, 6-phenylmethoxy-1H-indazole], the “rescue of the activity of the triple mutant scFv variant (Rip3)” value was “rescues the activity”.
